Structures are written as SMILES.

The series is described as follows: Stability of substrates and metabolites in quality control samples (benchtop, autosampler, freeze-thaw). The following applies: for Autosampler stability (24 h) Av. Accuracy (%): 10° C for 24 hours in the autosampler; for 3x freeze-thaw Av. Accuracy (%): after three freeze-thaw cycles; for Benchtop stability (19 h) Ac. Accuracy (%): room temperature for 19 hours. The class given is physicochemical. The text has this: The method was validated for intra- and interday accuracy and precision, stability, and matrix effects. […] Validation details are provided in Supplementary Tables 5–7 and supplemental Fig. 3. Glucuronidase/sulfatase digests were used to isolate CYP-specific metabolic activities, reducing interference from polymorphic UDP-glucuronosyltransferase (UGT) and sulfotransferase isoforms.
Supplemental table 6: Stability of the substrates and metabolites. Quality control samples were left at room temperature for 19 hours (benchtop stability) and at 10° C for 24 hours in the autosampler (autosampler stability) or were measured after three freeze-thaw cycles. Stability samples were measured against a freshly prepared set of calibrators and quality control samples.

As to `OCc1ncc2n1-c1ccc(Cl)cc1C(c1ccccc1F)=NC2` [1-OH-midazolam], the “Autosampler stability (24 h) Av. Accuracy (%)” value (“Autosampler stability … (%)” below) by setting is: (QC conc. 0,2 ng/ml) 102,59%; (QC conc. 0,6 ng/ml) 107,25%; (QC conc. 24 ng/ml) 113,74%; (QC conc. 60 ng/ml) 105,87%. For the same compound, the “3x freeze-thaw Av. Accuracy (%)” value (QC conc. 0,2 ng/ml) was 108,6%, the “3x freeze-thaw Av. Accuracy (%)” value (QC conc. 0,6 ng/ml) is on record as 109,36%, the “3x freeze-thaw Av. Accuracy (%)” value (QC conc. 24 ng/ml) was 106,45% and the “3x freeze-thaw Av. Accuracy (%)” value (QC conc. 60 ng/ml) is reported as 100,47%. The “Benchtop stability (19 h) Ac. Accuracy (%)” value (shortened to “Benchtop stability … (%)”) is reported as 82,15% (QC conc. 0,2 ng/ml), 102,06% (QC conc. 0,6 ng/ml), 112,46% (QC conc. 24 ng/ml) and 105,11% (QC conc. 60 ng/ml).
With `COc1ccc2nc([S+]([O-])Cc3ncc(CO)c(OC)c3C)[nH]c2c1` (stereo not shown) [5-OH-omeprazole], the “Autosampler stability … (%)” value is 112,52% (QC conc. 0,5 ng/ml); 90,94% (QC conc. 0,25 ng/ml); 104,61% (QC conc. 60 ng/ml); 97,73% (QC conc. 150 ng/ml); 102,58% (QC conc. 1,5 ng/ml). Besides, the “3x freeze-thaw Av. Accuracy (%)” value by setting is: (QC conc. 0,5 ng/ml) 105,73%; (QC conc. 0,25 ng/ml) 101,98%; (QC conc. 60 ng/ml) 99,23%; (QC conc. 150 ng/ml) 100,57%; (QC conc. 1,5 ng/ml) 103,03%. The “Benchtop stability … (%)” value reads like this: (QC conc. 0,5 ng/ml) 95,94%; (QC conc. 0,25 ng/ml) 99,1%; (QC conc. 60 ng/ml) 99,68%; (QC conc. 150 ng/ml) 92,79%; (QC conc. 1,5 ng/ml) 98,98%.
For `O=C1Nc2c(O)cc(Cl)cc2[C@@](C#CC2CC2)(C(F)(F)F)O1` [8-OH-efavirenz], the “Autosampler stability … (%)” value (QC conc. 0,5 ng/ml) is 86,73%; the “Autosampler stability … (%)” value (QC conc. 0,25 ng/ml) is given as 86,81%; the “Autosampler stability … (%)” value (QC conc. 60 ng/ml) was 86,15%; the “Autosampler stability … (%)” value (QC conc. 150 ng/ml) was 78,85%; the “Autosampler stability … (%)” value (QC conc. 1,5 ng/ml) was 88,49%. Moreover, the “3x freeze-thaw Av. Accuracy (%)” value is 84,9% (QC conc. 0,5 ng/ml); 84,61% (QC conc. 0,25 ng/ml); 79,98% (QC conc. 60 ng/ml); 77,49% (QC conc. 150 ng/ml); 79,73% (QC conc. 1,5 ng/ml). Further, the “Benchtop stability … (%)” value runs as follows: (QC conc. 0,5 ng/ml) 74,06%; (QC conc. 0,25 ng/ml) 69,5%; (QC conc. 60 ng/ml) 77,52%; (QC conc. 150 ng/ml) 74,14%; (QC conc. 1,5 ng/ml) 76,61%.
Take `COCC(O)c1ccc(OCC(O)CNC(C)C)cc1` (stereo not shown) [OH-metoprolol]: the “Autosampler stability … (%)” value (QC conc. 0,5 ng/ml) is given as 101,05%; the “Autosampler stability … (%)” value (QC conc. 0,25 ng/ml) is given as 90,24%; the “Autosampler stability … (%)” value (QC conc. 60 ng/ml) is recorded as 97,01%; the “Autosampler stability … (%)” value (QC conc. 150 ng/ml) is given as 88,29%; the “Autosampler stability … (%)” value (QC conc. 1,5 ng/ml) is recorded as 96,56%. The “3x freeze-thaw Av. Accuracy (%)” value is 95,27% (QC conc. 0,5 ng/ml); 85,17% (QC conc. 0,25 ng/ml); 91,98% (QC conc. 60 ng/ml); 87,96% (QC conc. 150 ng/ml); 95,33% (QC conc. 1,5 ng/ml). Further, the “Benchtop stability … (%)” value is, setting by setting: (QC conc. 0,5 ng/ml) 90,1%; (QC conc. 0,25 ng/ml) 81,14%; (QC conc. 60 ng/ml) 95,47%; (QC conc. 150 ng/ml) 88,26%; (QC conc. 1,5 ng/ml) 94,57%.
On to `CC(C)NC(=O)NS(=O)(=O)c1cnccc1Nc1cccc(CO)c1` [OH-torsemide], for which the “Autosampler stability … (%)” value is reported as 109,17% (QC conc. 1 ng/ml); 113,11% (QC conc. 2 ng/ml); 109,32% (QC conc. 6 ng/ml); 108,82% (QC conc. 240 ng/ml); 99,55% (QC conc. 600 ng/ml). Moreover, the “3x freeze-thaw Av. Accuracy (%)” value (QC conc. 1 ng/ml) is listed as 105,26%; the “3x freeze-thaw Av. Accuracy (%)” value (QC conc. 2 ng/ml) was 105,85%; the “3x freeze-thaw Av. Accuracy (%)” value (QC conc. 6 ng/ml) is on record as 107,78%; the “3x freeze-thaw Av. Accuracy (%)” value (QC conc. 240 ng/ml) is 104,11%; the “3x freeze-thaw Av. Accuracy (%)” value (QC conc. 600 ng/ml) is listed as 96,28%. Also, the “Benchtop stability … (%)” value runs as follows: (QC conc. 1 ng/ml) 106,91%; (QC conc. 2 ng/ml) 107,98%; (QC conc. 6 ng/ml) 111,3%; (QC conc. 240 ng/ml) 106,75%; (QC conc. 600 ng/ml) 99,14%.
As for `Cn1c(=O)[nH]c2ncn(C)c2c1=O` [Paraxanthine], the “Autosampler stability … (%)” value is reported as 96,28% (QC conc. 10 ng/ml), 105,74% (QC conc. 30 ng/ml), 105,06% (QC conc. 1200 ng/ml) and 93,91% (QC conc. 3000 ng/ml). The “3x freeze-thaw Av. Accuracy (%)” value is 96,57% (QC conc. 10 ng/ml), 103,75% (QC conc. 30 ng/ml), 100,61% (QC conc. 1200 ng/ml) and 92,32% (QC conc. 3000 ng/ml). The “Benchtop stability … (%)” value is, setting by setting: (QC conc. 10 ng/ml) 89,99%; (QC conc. 30 ng/ml) 105,38%; (QC conc. 1200 ng/ml) 103,5%; (QC conc. 3000 ng/ml) 94,2%.
As for `Cn1c(=O)c2c(ncn2C)n(C)c1=O` [caffeine, reference compound], the “3x freeze-thaw Av. Accuracy (%)” value is, setting by setting: (QC conc. 10 ng/ml) 107,62%; (QC conc. 30 ng/ml) 107,18%; (QC conc. 1200 ng/ml) 105,12%; (QC conc. 3000 ng/ml) 97,54%.
With `O=C1Nc2ccc(Cl)cc2[C@@](C#CC2CC2)(C(F)(F)F)O1` [efavirenz, reference compound], the “Autosampler stability … (%)” value runs as follows: (QC conc. 0,63 ng/ml) 109,58%; (QC conc. 150 ng/ml) 115,3%; (QC conc. 375 ng/ml) 106,16%; (QC conc. 1,25 ng/ml) 114,46%; (QC conc. 3,75 ng/ml) 114,56%. Further, the “3x freeze-thaw Av. Accuracy (%)” value is, setting by setting: (QC conc. 0,63 ng/ml) 124,41%; (QC conc. 150 ng/ml) 112,08%; (QC conc. 375 ng/ml) 107,17%; (QC conc. 1,25 ng/ml) 117,78%; (QC conc. 3,75 ng/ml) 111,15%. In addition, the “Benchtop stability … (%)” value is given as 92,21% (QC conc. 0,63 ng/ml); 111,5% (QC conc. 150 ng/ml); 104,9% (QC conc. 375 ng/ml); 102,48% (QC conc. 1,25 ng/ml); 107,06% (QC conc. 3,75 ng/ml).
